# Experiments:
# [1] = Stability in liver microsomes; type: in vitro ADME; settings: 2 μM peptidomimetic, human liver microsomes, 37° C.; for half-life at 2 μM: pH 7.8, read-out: half-life (t1/2) when incubated with liver microsomes
# Procedure: (§1) Reactions were terminated by the addition of TFA/H2O (15 mL, 10% (v/v)). […] The column was equilibrated with TFA/H20, at a flow rate of 1 mL/min.
# DPP IV = DPP IV (Homo sapiens, UniProt P27487); assay: Stability against DPP IV enzyme; type: in vitro ADME; settings: 37° C.; for % degradation of peptidomimetics in 24 h when incubated with DPP-IV enzyme: 2 μM peptidomimetic; for half-life at 2 μM: DPP IV enzyme, pH 7.8, 2 μM peptidomimetic, read-out: half-life (t1/2) when incubated with DPP-IV enzyme
# Sequence of DPP IV (P27487 whole entry, species assumed): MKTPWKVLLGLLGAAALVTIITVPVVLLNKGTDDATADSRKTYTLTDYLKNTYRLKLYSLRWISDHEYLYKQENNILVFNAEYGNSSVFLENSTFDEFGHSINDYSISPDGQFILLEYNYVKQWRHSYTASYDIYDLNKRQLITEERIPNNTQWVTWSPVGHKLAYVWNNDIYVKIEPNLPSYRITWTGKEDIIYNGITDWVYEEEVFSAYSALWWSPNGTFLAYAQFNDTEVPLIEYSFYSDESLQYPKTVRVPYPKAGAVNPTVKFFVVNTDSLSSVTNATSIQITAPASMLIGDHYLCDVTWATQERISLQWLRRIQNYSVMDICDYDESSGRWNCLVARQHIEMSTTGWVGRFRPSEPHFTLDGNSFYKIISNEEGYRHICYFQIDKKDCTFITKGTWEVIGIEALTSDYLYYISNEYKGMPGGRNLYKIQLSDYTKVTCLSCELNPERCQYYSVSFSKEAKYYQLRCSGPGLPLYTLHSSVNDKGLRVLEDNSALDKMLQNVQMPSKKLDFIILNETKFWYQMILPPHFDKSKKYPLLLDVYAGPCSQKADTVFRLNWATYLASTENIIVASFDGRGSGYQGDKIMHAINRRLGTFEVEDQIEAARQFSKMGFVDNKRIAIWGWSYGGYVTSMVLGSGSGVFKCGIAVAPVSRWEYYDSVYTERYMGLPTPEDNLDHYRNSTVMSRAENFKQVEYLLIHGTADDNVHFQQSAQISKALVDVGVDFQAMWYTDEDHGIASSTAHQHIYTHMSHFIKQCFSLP
# Procedure: as §1
# [2] = Stability in human plasma; type: in vitro ADME; settings: 2 μM peptidomimetic, pooled human plasma, 37° C.; for half-life at 2 μM: pH 7.8, read-out: half-life (t1/2) when incubated with human plasma
# Procedure: as §1
# [3] = tested on: RIN5F (Rat Insulinoma) cells; assay: In vitro glucose-dependent insulin secretion (RIN5F cell assay screening protocol); type: cell-based; settings: 16.7 mM glucose load
# [4] = Stability in simulated intestinal fluid; type: in vitro ADME; settings: 2 μM peptidomimetic, simulated intestinal fluid pH 7.5, 37° C.; for half-life at 2 μM: read-out: half-life (t1/2) when incubated with simulated intestinal fluid
# Procedure: as §1
# [5] = Stability in simulated gastric fluid; type: in vitro ADME; settings: 2 μM peptidomimetic, simulated gastric fluid pH 1.5, 37° C.; for half-life at 2 μM: read-out: half-life (t1/2) when incubated with simulated gastric fluid
# Procedure: as §1
# Human GLP-1 receptor = target: T1, Human GLP-1 receptor (Homo sapiens, UniProt P43220); assay: In vitro Human GLP-1 R agonist activity (cyclic AMP determination) in CHO/human GLP1R cells; type: cell-based
# T1 construct: The full-length cDNA was cloned in pcDNA3.1(+); expressed in transfected cells
# T1 sequence (P43220 24-463): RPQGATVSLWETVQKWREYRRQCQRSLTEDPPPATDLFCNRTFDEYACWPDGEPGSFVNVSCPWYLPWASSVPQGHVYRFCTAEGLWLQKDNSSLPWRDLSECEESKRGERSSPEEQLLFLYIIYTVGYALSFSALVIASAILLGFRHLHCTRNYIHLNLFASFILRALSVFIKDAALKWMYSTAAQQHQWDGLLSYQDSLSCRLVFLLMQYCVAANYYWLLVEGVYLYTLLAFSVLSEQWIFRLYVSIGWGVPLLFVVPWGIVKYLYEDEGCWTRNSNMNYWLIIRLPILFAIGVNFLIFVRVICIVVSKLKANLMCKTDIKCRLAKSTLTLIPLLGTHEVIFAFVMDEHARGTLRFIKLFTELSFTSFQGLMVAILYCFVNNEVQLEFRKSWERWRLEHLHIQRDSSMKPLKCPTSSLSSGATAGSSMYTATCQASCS
# human glucagon receptor = target: T2, human glucagon receptor (Homo sapiens, UniProt P47871); assay: In vitro human glucagon antagonist activity (inhibition of cAMP production) in CHO/human glucagon R cells; type: cell-based; settings: with saturated concentration of glucagon peptide
# T2 construct: The full-length cDNA was cloned in pcDNA3.1 (Invitrogen); expressed in transfected cells
# T2 sequence (P47871 26-477): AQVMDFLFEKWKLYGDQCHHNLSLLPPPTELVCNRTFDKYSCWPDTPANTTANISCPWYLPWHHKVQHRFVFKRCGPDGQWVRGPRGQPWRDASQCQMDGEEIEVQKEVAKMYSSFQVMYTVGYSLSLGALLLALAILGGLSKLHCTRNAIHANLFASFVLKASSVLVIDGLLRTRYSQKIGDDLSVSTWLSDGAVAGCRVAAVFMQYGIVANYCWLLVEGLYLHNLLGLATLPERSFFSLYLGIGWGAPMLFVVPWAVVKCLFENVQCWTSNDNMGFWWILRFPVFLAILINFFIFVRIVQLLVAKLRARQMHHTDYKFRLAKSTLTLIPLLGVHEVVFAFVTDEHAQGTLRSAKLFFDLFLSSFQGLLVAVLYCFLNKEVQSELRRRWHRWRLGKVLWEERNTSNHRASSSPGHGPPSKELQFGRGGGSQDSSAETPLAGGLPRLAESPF
SMILES,% degradation of peptidomimetics in 24 h when incubated with liver microsomes [1],half-life at 2 μM [1],% degradation of peptidomimetics in 24 h when incubated with DPP-IV enzyme (DPP IV),half-life at 2 μM (DPP IV),% degradation of peptidomimetics in 24 h when incubated with human plasma [2],half-life at 2 μM [2],Insulin secretion ([3]; 0.1 nM test compd.),Insulin secretion ([3]; 1 nM test compd.),Insulin secretion ([3]; 10 nM test compd.),% degradation of peptidomimetics in 24 h when incubated with simulated intestinal fluid [4],half-life at 2 μM [4],% degradation of peptidomimetics in 24 h when incubated with simulated gastric fluid [5],half-life at 2 μM [5],"Human GLP-1 R activity (cAMP release), % activity with respect to control (Human GLP-1 receptor; 1 nM test compound)","Human GLP-1 R activity (cAMP release), % activity with respect to control (Human GLP-1 receptor; 10 nM test compound)","Human GLP-1 R activity (cAMP release), % activity with respect to control (Human GLP-1 receptor; 100 nM test compound)","Human GLP-1 R activity (cAMP release), % activity with respect to control (Human GLP-1 receptor; 1 μM test compound)","Human GLP-1 R activity (cAMP release), % activity with respect to control (Human GLP-1 receptor; 10 μM test compound)",Human Glucagon receptor antagonistic activity shown as inhibition of cAMP production of Glucagon peptide (human glucagon receptor; 1 nM test compound),Human Glucagon receptor antagonistic activity shown as inhibition of cAMP production of Glucagon peptide (human glucagon receptor; 10 nM test compound),other results
"CCc1cc(OC)ccc1-c1ccc(CC(CNC(CCCc2ccccc2F)C(N)=O)NC[C@H](CC(=O)O)NC(=O)[C@H](CO)NC(=O)[C@@H](NC(=O)C(C)(Cc2ccccc2F)NC(=O)[C@@H](NC(=O)CNC(=O)[C@H](CCC(N)=O)NC(=O)C(C)(C)NC(=O)[C@H](Cc2c[nH]cn2)NC(=O)OC)[C@H](C)O)[C@H](C)O)cc1 (single isomer, unassigned) [compound 200]",81%,2 h,00%,> 24 h,00%,> 24 h,16.5 ± 0.12 pg/µg/h,22.7 ± 0.17 pg/µg/h,36.5 ± 0.05 pg/µg/h,00%,> 24 h,52%,4 h,55 ± 0.16%,88 ± 0.13%,92 ± 0.11%,99 ± 0.07%,99 ± 0.09%,10 ± 0.16 pmol/ml/μg prt,8 ± 0.12 pmol/ml/μg prt,Human Glucagon receptor antagonistic activity shown as inhibition of cAMP production of Glucagon peptide (human glucagon receptor; 100 nM test compound): 6 ± 0.14 pmol/ml/μg prt; Human Glucagon receptor antagonistic activity shown as inhibition of cAMP production of Glucagon peptide (human glucagon receptor; 1 μM test compound): 4 ± 0.15 pmol/ml/μg prt; Human Glucagon receptor antagonistic activity shown as inhibition of cAMP production of Glucagon peptide (human glucagon receptor; 10 μM test compound): 1 ± 0.12 pmol/ml/μg prt
"CCc1cc(OC)ccc1-c1ccc(CC(NC(=O)[C@H](CC(=O)O)NC(=O)[C@H](CO)NC(=O)[C@@H](NC(=O)[C@H](Cc2ccccc2)NC(=O)[C@@H](NC(=O)CNC(=O)C(CCC#N)NC(=O)C(C)(C)NC(=O)[C@@H](N)Cc2c[nH]cn2)[C@@H](C)O)[C@@H](C)O)C(=O)NC(CCCc2cc(C)cc(C)c2)C(N)=O)cc1 (single isomer, unassigned) [compound 30]",33%,,00%,> 24 h,00%,> 24 h,17.1 ± 0.11 pg/µg/h,23.1 ± 0.16 pg/µg/h,37.0 ± 0.29 pg/µg/h,00%,> 24 h,00%,> 24 h,38 ± 0.12%,78 ± 0.15%,86 ± 0.18%,95 ± 0.03%,98 ± 0.09%,22 ± 0.03 pmol/ml/μg prt,21 ± 0.05 pmol/ml/μg prt,half-life (t1/2) when incubated with liver microsomes [1]: (5) h; Human Glucagon receptor antagonistic activity shown as inhibition of cAMP production of Glucagon peptide (human glucagon receptor; 100 nM test compound): 20 ± 0.07 pmol/ml/μg prt; Human Glucagon receptor antagonistic activity shown as inhibition of cAMP production of Glucagon peptide (human glucagon receptor; 1 μM test compound): 18 ± 0.04 pmol/ml/μg prt; Human Glucagon receptor antagonistic activity shown as inhibition of cAMP production of Glucagon peptide (human glucagon receptor; 10 μM test compound): 18 ± 0.03 pmol/ml/μg prt
"CCc1cc(OC)ccc1-c1ccc(CC(C(=O)N(C)C(CCCc2ccccc2)C(N)=O)N(C)C(=O)[C@H](CC(=O)O)N(C)C(=O)[C@H](CO)NC(=O)[C@@H](NC(=O)C(C)(Cc2ccccc2F)NC(=O)[C@@H](NC(=O)CNC(=O)C(CCC#N)NC(=O)C(C)(C)NC(=O)[C@@H](N)Cc2c[nH]cn2)[C@H](C)O)[C@H](C)O)cc1 (single isomer, unassigned) [compound 154]",83%,1 h,74%,9 h,75%,8 h,16.1 ± 0.22 pg/µg/h,22.1 ± 0.26 pg/µg/h,36.0 ± 0.36 pg/µg/h,46%,,12%,,60 ± 0.12%,92 ± 0.15%,98 ± 0.18%,99 ± 0.03%,99 ± 0.09%,9 ± 0.11 pmol/ml/μg prt,6 ± 0.12 pmol/ml/μg prt,half-life (t1/2) when incubated with simulated intestinal fluid [4]: (6) h; half-life (t1/2) when incubated with simulated gastric fluid [5]: (8) h; Human Glucagon receptor antagonistic activity shown as inhibition of cAMP production of Glucagon peptide (human glucagon receptor; 100 nM test compound): 5 ± 0.14 pmol/ml/μg prt; Human Glucagon receptor antagonistic activity shown as inhibition of cAMP production of Glucagon peptide (human glucagon receptor; 1 μM test compound): 3 ± 0.22 pmol/ml/μg prt; Human Glucagon receptor antagonistic activity shown as inhibition of cAMP production of Glucagon peptide (human glucagon receptor; 10 μM test compound): 0 pmol/ml/μg prt
"CCc1cc(OC)ccc1-c1ccc(CC(NC(=O)[C@H](CC(=O)O)NC(=O)[C@H](CO)NC(=O)[C@@H](NC(=O)[C@H](Cc2ccccc2)NC(=O)[C@@H](NC(=O)CNC(=O)C(CCC#N)NC(=O)C(C)(C)NC(=O)[C@@H](N)Cc2c[nH]cn2)[C@@H](C)O)[C@@H](C)O)C(=O)NC(CCCc2ccc(F)cc2C(F)(F)F)C(N)=O)cc1 (single isomer, unassigned) [compound 80]",100%,0.5 h,72%,,70%,,16.2 ± 0.13 pg/µg/h,22.4 ± 0.19 pg/µg/h,36.2 ± 0.09 pg/µg/h,100%,0.5 h,100%,0.5 h,66 ± 0.022%,97 ± 0.46%,99 ± 0.41%,99 ± 0.66%,99 ± 0.03%,,,half-life (t1/2) when incubated with human plasma [2]: (9) h
"CCc1cc(OC)ccc1-c1ccc(CC(NC(=O)[C@H](CC(=O)O)NC(=O)[C@H](CO)NC(=O)[C@@H](NC(=O)[C@H](Cc2ccccc2)NC(=O)[C@@H](NC(=O)CNC(=O)[C@H](CCC(N)=O)NC(=O)[C@H](CO)NC(=O)[C@@H](N)Cc2c[nH]cn2)[C@@H](C)O)[C@@H](C)O)C(=O)NC(CCCc2ccccc2Cl)C(N)=O)cc1 (single isomer, unassigned) [compound 50]",82%,1 h,77%,9 h,80%,8 h,15.4 ± 0.14 pg/µg/h,21.2 ± 0.18 pg/µg/h,35.6 ± 0.17 pg/µg/h,50%,,13%,,60 ± 0.12%,92 ± 0.15%,98 ± 0.18%,99 ± 0.03%,99 ± 0.09%,,,half-life (t1/2) when incubated with simulated intestinal fluid [4]: (6) h; half-life (t1/2) when incubated with simulated gastric fluid [5]: (8) h

# — patent US8883963B2 (Cadila Healthcare Limited, priority 2007, dated 2014)
